Holding throughout (type): in vivo
Holding throughout (conditions): no safener

The test system of one series is Barley. In words: Compatibility with crop plants, greenhouse, post-emergence, visual scoring. The procedure: (§1) Seeds or rhizome pieces of monocotyledonous and dicotyledonous weeds were placed in sandy loam soil in plastic pots, covered with soil and cultivated in a greenhouse under good growth conditions. Three weeks after sowing, the test plants were treated at the 2- to 4-leaf stage. The compounds according to the invention, formulated as wettable powders or as emulsion concentrates, were sprayed onto the green parts of the plants in various dosages at a water application rate of 100 to 800 I/ha (converted). After the test plants had been left to stand in the greenhouse for 3 to 4 weeks under optimum growth conditions, the effect of the preparations was scored visually in comparison to untreated controls.
(§2) In further greenhouse trials, seeds of a relatively large number of crop plants and weeds were placed into sandy loam soil and covered with soil. Some of the pots were immediately treated as described in section 1, the others were placed in a greenhouse until the plants had developed two to three true leaves and were then sprayed with various dosages of the herbicide/safener combinations according to the invention, as described in section 2. Four to five weeks after the application and standing time in the greenhouse, it was established by visual scoring that the herbicide/safener combinations tested, i.e. of 2-iodo-N-[(4-methoxy-6-methyl-1,3,5-triazin-2-yl)carbamoyl]benzenesulfonamide and the compounds of the formula (I) listed in table A, did, especially with the safeners of the compounds of the formulae S1-1, S1-6, S1-9, S2-1 and S3-1, benoxacor, furilazole, fluxofenim, not cause any damage to crop plants such as cotton, oilseed rape, sugar cane, sugar beet and also Gramineae crops such as barley, wheat, rye, millet, corn or rice when applied by the pre-emergence method or the post-emergence method.
(§3) The results of selected trials with respect to the crop plant compatibility are shown below in an exemplary manner using as an example safeners improving 2-iodo-N-[(4-methoxy-6-methyl-1,3,5-triazin-2-yl)carbamoyl]benzenesulfonamide (A-0) or its Na^+ salt (A-2) in various crop plants, i.e. wheat, barley and corn.

Series [1] relates to Corn. The description is as above. The protocol:
as §1, §2, §3

In a further series the test system is Wheat. The series is described as above. The procedure: as §1, §2, §3
Series [2] concerns Corn. In words: Compatibility with crop plants, greenhouse, pre-emergence, visual scoring. The text has this:
Seeds or rhizome pieces of monocotyledonous and dicotyledonous weed plants were placed in sandy loam soil in cardboard pots and covered with soil. The active compounds (A) and (B), formulated as wettable powders or emulsion concentrates, were then applied to the surface of the covering soil as aqueous suspensions or emulsions in different dosages at a water application rate of 100 to 800 I/ha (converted).
After the treatment, the pots were placed in a greenhouse and kept under good growth conditions for the weeds. Visual scoring of the plant damage or emergence damage was carried out after the test plants had emerged after a test period of 3 to 4 weeks, in comparison to untreated controls. […] The combinations of 2-iodo-N—[(4-methoxy-6-methyl-1,3,5-triazin-2-yl)carbamoyl]benzenesulfonamide and compounds of the formula (I) mentioned in table A especially with the safeners of the compounds of the formulae S1-1, S1-9, S2-1 and S3-1 have very good synergistic herbicidal activity against harmful plants such as Sinapis alba, Chrysanthemum segetum, Avena sativa, Stellaria media, Echinochloa crus-galli, Lolium multiflorum, Setaria viridis, Abutilon theophrasti, Amaranthus retroflexus and Panicum miliaceum when applied by the pre-emergence method at an application rate of 100 g or less of active substance per hectare. […]

[3] abbreviates: active compound 6.25 g of ai/ha.
[4] abbreviates: active compound 12.5 g of ai/ha.

The structures appear in SMILES notation. Several values for one entry are separate records, joined by “and”; a condition that tells them apart may be missing. Equal values may be shown once.

For the molecule `COc1nc(C)nc(NC(=O)NS(=O)(=O)c2ccccc2I)n1` [Compound A-0, 2-iodo-N-[(4-methoxy-6-methyl-1,3,5-triazin-2-yl)carbamoyl]benzenesulfonamide], the “Damage to the crop plant in %” value with Barley (setting [3]) is 20% and 10%; in the series on Barley (setting [4]), 20%; with Corn [1] (setting [3]), 20%; in the series with Corn [1] (active compound 25 g of ai/ha), 50%; with Wheat (setting [3]), 20%; in the series on Wheat (setting [4]) it was 20%. For the same molecule, the “Damage to the crop plant in %” value was found to be 65% with Corn [2] (setting [4]) and 60% in the series on Corn [2] (active compound 50 g of ai/ha).

The values are drawn from patent US20100317517A1, “HERBICIDE-SAFENER COMBINATION” (BAYER CROPSCIENCE AG, priority 2007, published 2010).
